{"source": "ChEMBL document CHEMBL2440097", "about": "“Triphenylphosphonium salts of 1,2,4-benzothiadiazine 1,1-dioxides related to diazoxide targeting mitochondrial ATP-sensitive potassium channels” (Bioorg Med Chem Lett, 2013)", "key": {"H9c2 [1]": {"system": "H9c2", "assay": "Effect on metabolic activity in […] H9C2 cells up to 10 uM incubated for 1 hr followed by paraquat addition measured after 24 hrs by CellTiter 96 Aqueous non-radioactive cell proliferation assay", "assay_type": "functional, cell-based"}, "H9c2 [2]": {"system": "H9c2", "assay": "Effect on ATP production in […] H9C2 cells up to 10 uM after 24 hrs by CellTiter-Glo luminescent test", "assay_type": "functional, cell-based"}, "[3]": {"assay": "Drug uptake in mitochondria of […] H9C2 cells at 1 x 10^-4 M after 2 hrs by LC-MS analysis", "assay_type": "ADME", "details": "h9c2, 2 h, 100 µM"}, "H9c2 [4]": {"system": "H9c2", "assay": "Effect on routine respiration in […] H9C2 cells at 10 uM by high resolution oxygraphic analysis", "assay_type": "functional, cell-based"}, "[5]": {"molecular_target": "Kir6.2/SUR1 (Rattus norvegicus) (UniProt P70673+Q09429)", "assay": "Activation of Kir6.2/SUR1 in rat pancreatic islets assessed as residual glucose-induced insulin release at 10 uM relative to control"}, "H9c2 [6]": {"system": "H9c2", "assay": "Effect on oligomycin-inhibited leak respiration in […] H9C2 cells at 10 uM by high resolution oxygraphic analysis", "assay_type": "functional, cell-based"}, "H9c2 [7]": {"system": "H9c2", "assay": "Effect on maximal respiratory capacity in […] H9C2 cells at 10 uM by high resolution oxygraphic analysis", "assay_type": "functional, cell-based"}, "[8]": {"assay": "Drug uptake in cytosol of […] H9C2 cells at 1 x 10^-4 M after 2 hrs by LC-MS analysis", "assay_type": "ADME, cell-based", "details": "100 µM"}}, "note": "The source made the active and inactive calls. No cut-off for these calls is given here."}
{"smiles": "C[C@H](COC(=O)C[P+](c1ccccc1)(c1ccccc1)c1ccccc1)NC1=NS(=O)(=O)c2cc(Cl)ccc2N1.[Cl-]", "values": [{"measurement": "Activity", "setting": "H9c2 [1]", "value": "inactive"}, {"measurement": "Activity", "setting": "H9c2 [2]", "value": "inactive"}, {"measurement": "Drug uptake", "setting": "[3]", "value": "Active"}, {"measurement": "Activity", "setting": "H9c2 [4]", "value": "inactive"}, {"measurement": "Activity", "setting": "[5]", "value": 27, "unit": "%"}, {"measurement": "Activity", "setting": "H9c2 [6]", "value": "Active"}, {"measurement": "Activity", "setting": "H9c2 [7]", "value": "inactive"}, {"measurement": "Drug uptake", "setting": "[8]", "value": "Active"}]}
{"smiles": "C[C@H](COC(=O)CC[P+](c1ccccc1)(c1ccccc1)c1ccccc1)NC1=NS(=O)(=O)c2cc(Cl)ccc2N1", "values": [{"measurement": "Activity", "setting": "H9c2 [1]", "value": "inactive"}, {"measurement": "Activity", "setting": "H9c2 [2]", "value": "inactive"}, {"measurement": "Activity", "setting": "H9c2 [4]", "value": "inactive"}, {"measurement": "Activity", "setting": "[5]", "value": 56, "unit": "%"}, {"measurement": "Activity", "setting": "H9c2 [7]", "value": "inactive"}]}
{"smiles": "CC1=Nc2ccc(Cl)cc2S(=O)(=O)N1", "values": [{"measurement": "Activity", "setting": "[5]", "value": 73.9, "unit": "%"}]}
{"smiles": "C[C@H](COC(=O)CCC[P+](c1ccccc1)(c1ccccc1)c1ccccc1)NC1=NS(=O)(=O)c2cc(Cl)ccc2N1", "values": [{"measurement": "Activity", "setting": "H9c2 [1]", "value": "inactive"}, {"measurement": "Activity", "setting": "H9c2 [2]", "value": "inactive"}, {"measurement": "Activity", "setting": "H9c2 [4]", "value": "inactive"}, {"measurement": "Activity", "setting": "[5]", "value": 63.7, "unit": "%"}, {"measurement": "Activity", "setting": "H9c2 [7]", "value": "inactive"}]}
